What was measured:
[1] = system: DTH reaction in Balb/c mice; test: Delayed type hypersensitivity (DTH) reaction, Tetanus Toxoid footpad swelling; assay type: in vivo; conditions: female Balb/c mice, sc. once daily day 1-11, Tetanus Toxoid immunization day 2, challenge day 9, footpad swelling
Procedure: In the delayed type hypersensitivity (DTH) procedure, the effect of a compound on the development of an immune reaction can be observed in mice (details in example 16). Briefly, the compound is administered daily and the animals are immunized subsequently with an antigen in adjuvant. After 7 days the animals are challenged locally by injecting the antigen locally (mostly in the foot) and measuring the subsequently developing local swelling in response to the deposition of the antigen. The degree of this swelling is related to the development of an immune response against the eliciting antigen. The inhibiting action of a compound of this invention on the development of this swelling can be determined, by comparing the treatment group with a placebo treated group. As a reference treatment, administration of glucocorticoids can be used.
Groups of eight female Balb/c (Harlan, Zeist, The Netherlands) mice were used, approximately 8 weeks of age at the start of the experiment. These mice were housed in Macrolon cages, under standard conditions and acclimatized for 3-5 days before the start of the experiment. The groups received either compound or placebo.
They were weighed on day 1 and on the last treatment day. Animals were treated once daily by subcutaneous (sc) injection in the back of the neck or by oral gavage from day 1 till day 11 with a test compound in concentration range from 1.2, 3, 4, 6, to 12 mg/kg. The injection volume was 0.1 mL of a vehicle for injection consisting of physiological saline containing 0.5% gelatin and 5% mannitol. A placebo treated group (vehicle only) and a group treated with 4 mg/kg dexamethasone as reference compound were included in each experiment.
On day 2, animals were immunized with 0.1 ml of a stable suspension of 3.75 Lf Tetanus Toxoid antigen (TT from the RIVM, Zeist, The Netherlands) in 1 mg/ml dimethyl dioctadecylammonium bromide (DDA) from Phase Sep, at 2 places on the breast intradermally.
On day 9 animals were challenged on the ventral side of the right [R] paw with 0.05 mL of a solution containing 50 Lf TT and 1 mg Al(OH)3 per mL. The left [L] footpad (control) received the vehiculum with Al(OH)3 only. After 24 and 48 hours, the left and right footpad thickness (parameters L and R, respectively) were measured with a calipers densitometer in mm and the percentage of antigen-specific footpad swelling was calculated according to the formula: [(R−L)/L]×100%. Results

Structure (SMILES)	Amount of compound given sc. in mg/kg leading to 50% reduction of the DTH reaction as compared to placebo [1]	melting point
C=C1CCC2=C(C1)C[C@@H](C)[C@@H]1[C@@H]2CC[C@]2(C)[C@@H](O)CC[C@@H]12 [example 2, (7α,17β)-7-methyl-3-methyleneestr-5(10)-en-17-ol]	20 mg/kg	111.8 °C
C=C1CC[C@H]2[C@@H](C1)C[C@@H](C)[C@@H]1[C@@H]2CC[C@@]2(C)[C@H]1CC[C@@]2(O)CC [example 7, (5β,7α,17α)-7-Methyl-3-methylene-19-norpregnan-17-ol]	6 mg/kg	–
C#CC1(O)CCC2C3C(C)CC45CC(=C)CCC4(O5)C3CCC21C (stereo not drawn) [example 3, (5β,7α,17α)-5,10-epoxy-7-methyl-3-methylene-19-norpregn-20-yn-17-ol]	11 mg/kg	–
C#CC1(O)CCC2C3C(C)CC4=C(CCC(=C)C4)C3CCC21C (stereo not drawn) [example 1, (7α,17α)-7-methyl-3-methylene-19-norpregn-5(10)-en-20-yn-17-ol]	1.9 to 3.4 mg/kg	–
C=C1CC[C@@]23O[C@]2(C1)C[C@@H](C)[C@H]1[C@@H]2CC[C@H](O)[C@@]2(C)CC[C@@H]13 [example 4, (5β,7α,17β)-5,10-epoxy-7-methyl-3-methyleneestran-17-ol]	>20 mg/kg	125 °C
C=C[C@]1(O)CC[C@H]2[C@H]3[C@H](CC[C@@]21C)[C@H]1CCC(=C)C[C@@H]1C[C@H]3C [example 5, (5α,7α,17α)-7-methyl-3-methylene-19-norpregn-20-en-17-ol]	10 mg/kg	–
